US6511961B1, “Cyclic peptides and medicinal use thereof” (Toray Industries, Inc., priority 1997, dated 2003)
Where two headings read alike, the source gives them in different places.

Conditions: disulfide bond, 20-membered ring, AgOTf/anisole/TFA, then DMSO/HCl, 50% DMSO-1N HCl, 2 steps

Work on CC[C@H](C)[C@@H]1NC(=O)[C@@H](NC(C)=O)CSSC[C@@H](C(=O)O)NC(=O)[C@H](CC(C)C)NC(=O)[C@H](Cc2c[nH]cn2)NC(=O)[C@H](CC(=O)O)NC1=O [AcC*IDHLC*] yielded a ring closure, yield after HPLC (from Ac-Cys(Acm)-Ile-Asp-His-Leu-Cys(Acm)-OH) of 68%.

For CC(C)C[C@@H]1NC(=O)[C@H](Cc2c[nH]cn2)NC(=O)[C@H](CC(=O)O)NC(=O)[C@H](C)NC(=O)[C@@H](N)CSSC[C@@H](C(=O)O)NC1=O [C*ADHLC*], the ring closure, yield after HPLC (from H-Cys(Acm)-Ala-Asp-His-Leu-Cys(Acm)-OH) was 59%.

For CC(C)C[C@@H]1NC(=O)[C@H](Cc2c[nH]cn2)NC(=O)[C@H](CC(=O)O)NC(=O)[C@H](C2CCCCC2)NC(=O)[C@@H](N)CSSC[C@@H](C(=O)O)NC1=O [C*ChgDHLC*], the ring closure, yield after HPLC (from H-Cys(Acm)-Chg-Asp-His-Leu-Cys(Acm)-OH) was 68%.

For CC(C)C[C@@H]1NC(=O)[C@H](Cc2c[nH]cn2)NC(=O)[C@H](CCS(C)(=O)=O)NC(=O)[C@H](C2CCCCC2)NC(=O)[C@@H](N)CSSC[C@@H](C(=O)O)NC1=O [C*ChgMet(O2)HLC*], the ring closure, yield after HPLC (from H-Cys(Acm)-Chg-Met(O2)-His-Leu-Cys(Acm)-OH) was 41%.

CC[C@H](C)[C@@H]1NC(=O)[C@H](c2ccccc2)NC(=O)[C@H](CCS(C)(=O)=O)NC(=O)[C@H](C2CCCCC2)NC(=O)[C@@H](N)CSSC[C@@H](C(=O)O)NC1=O [C*ChgMet(O2)PhgIC*] gave a ring closure, yield after HPLC (from H-Cys(Acm)-Chg-Met(O2)-Phg-Ile-Cys(Acm)-OH) of 3%.

CC(C)C[C@@H]1NC(=O)[C@H](c2ccccc2)NC(=O)[C@H](CCS(C)(=O)=O)NC(=O)[C@H](C2CCCCC2)NC(=O)[C@@H](N)CSSC[C@@H](C(=O)O)NC1=O [C*ChgMet(O2)PhgLC*] showed a ring closure, yield after HPLC (from H-Cys(Acm)-Chg-Met(O2)-Phg-Leu-Cys(Acm)-OH) of 4%.

In the case of CC(C)C[C@@H]1NC(=O)[C@H](c2ccccc2)NC(=O)[C@H](CCS(C)(=O)=O)NC(=O)[C@H](C2CCCCC2)NC(=O)[C@@H](N)CSSC[C@H](C(=O)O)NC1=O [C*ChgMet(O2)PhgLdC*], the ring closure, yield after HPLC (from H-Cys(Acm)-Chg-Met(O2)-Phg-Leu-dCys(Acm)-OH) is reported as 42%.

In the case of CC(C)C[C@@H]1NC(=O)[C@@H](Cc2ccccc2)NC(=O)[C@H](CCS(C)(=O)=O)NC(=O)[C@H](C2CCCCC2)NC(=O)[C@@H](N)CSSC[C@@H](C(=O)O)NC1=O [C*ChgMet(O2)dFLC*], the ring closure, yield after HPLC (from H-Cys(Acm)-Chg-Met(O2)-dPhe-Leu-Cys(Acm)-OH) is reported as 26%.

Work on CC(C)C[C@@H]1NC(=O)[C@@H](Cc2c[nH]cn2)NC(=O)[C@H](CCS(C)(=O)=O)NC(=O)[C@H](C2CCCCC2)NC(=O)[C@@H](N)CSSC[C@@H](C(=O)O)NC1=O [C*ChgMet(O2)dHLC*] yielded a ring closure, yield after HPLC (from H-Cys(Acm)-Chg-Met(O2)-dHis-Leu-Cys(Acm)-OH) of 45%.

Compound CC(C)C[C@@H]1NC(=O)[C@@H](c2ccccc2)NC(=O)[C@H](CCS(C)(=O)=O)NC(=O)[C@H](C2CCCCC2)NC(=O)[C@@H](N)CSSC[C@@H](C(=O)O)NC1=O [C*ChgMet(O2)dPhgLC*] has a ring closure, yield after HPLC (from H-Cys(Acm)-Chg-Met(O2)-dPhg-Leu-Cys(Acm)-OH) of 8%.

In the case of CC(C)C[C@@H]1NC(=O)[C@@H](c2ccccc2)NC(=O)[C@H](CCS(C)(=O)=O)NC(=O)[C@H](C2CCCCC2)NC(=O)[C@@H](N)CSSC[C@H](C(=O)O)NC1=O [C*ChgMet(O2)dPhgLdC*], the ring closure, yield after HPLC (from H-Cys(Acm)-Chg-Met(O2)-dPhg-Leu-dCys(Acm)-OH) is reported as 40%.

With CC(C)C[C@@H]1NC(=O)[C@@H](Cc2ccc(O)cc2)NC(=O)[C@H](CCS(C)(=O)=O)NC(=O)[C@H](C2CCCCC2)NC(=O)[C@@H](N)CSSC[C@@H](C(=O)O)NC1=O [C*ChgMet(O2)dYLC*] the ring closure, yield after HPLC (from H-Cys(Acm)-Chg-Met(O2)-dTyr-Leu-Cys(Acm)-OH) was 37%.

With CC[C@H](C)[C@@H]1NC(=O)[C@@H](N)CSSC[C@@H](C(=O)O)NC(=O)[C@H](CC(C)C)NC(=O)[C@H](Cc2c[nH]cn2)NC(=O)[C@H](CC(=O)OC)NC1=O [C*ID(OMe)HLC*] the ring closure, yield after HPLC (from H-Cys(Acm)-Ile-Asp(OMe)-His-Leu-Cys(Acm)-OH) was 34%.

For CC[C@H](C)[C@@H]1NC(=O)[C@@H](N)CSSC[C@@H](C(=O)OC)NC(=O)[C@H](CC(C)C)NC(=O)[C@H](Cc2c[nH]cn2)NC(=O)[C@H](CC(=O)OC)NC1=O [C*ID(OMe)HLC—OMe*], the ring closure, yield after HPLC (from H-Cys(Acm)-Ile-Asp(OMe)-His-Leu-Cys(Acm)-OMe) was 34%.

Compound CC[C@H](C)[C@@H]1NC(=O)[C@@H](N)CSSC[C@@H](C(=O)O)NC(=O)[C@H](CC(C)C)NC(=O)[C@H](C)NC(=O)[C@H](CC(=O)O)NC1=O [C*IDALC*] has a ring closure, yield after HPLC (from H-Cys(Acm)-Ile-Asp-Ala-Leu-Cys(Acm)-OH) of 52%.

In the case of CC[C@H](C)[C@@H]1NC(=O)[C@@H](N)CSSC[C@@H](C(=O)O)NC(=O)[C@H](CC(C)C)NC(=O)[C@H](Cc2ccc3ccccc3c2)NC(=O)[C@H](CC(=O)O)NC1=O [C*IDAla(2-Naph)LC*], the ring closure, yield after HPLC (from H-Cys(Acm)-Ile-Asp-Ala(2-Naph)-Leu-Cys(Acm)-OH) is reported as 38%.
